We go through 58 molecules from ChEMBL document CHEMBL4052716, “Discovery and development of a novel class of phenoxyacetyl amides as highly potent TRPM8 agonists for use as cooling agents” (Bioorg Med Chem Lett, 2017).

In assay [1] the target is T1, Transient receptor potential cation channel subfamily M member 8 (Homo sapiens, UniProt Q7Z2W7). Put plainly: Agonist activity at human TRPM8 expressed in HEK293 cells assessed as increase in intracellular calcium level after 15 mins by Fluo-3-AM dye-based fluorescence assay. Format: cell-based. (In general: Calcium assays in cells follow changes in intracellular calcium, usually with a dye or a luminescent sensor.)
Target sequence in this assay (Q7Z2W7 whole entry): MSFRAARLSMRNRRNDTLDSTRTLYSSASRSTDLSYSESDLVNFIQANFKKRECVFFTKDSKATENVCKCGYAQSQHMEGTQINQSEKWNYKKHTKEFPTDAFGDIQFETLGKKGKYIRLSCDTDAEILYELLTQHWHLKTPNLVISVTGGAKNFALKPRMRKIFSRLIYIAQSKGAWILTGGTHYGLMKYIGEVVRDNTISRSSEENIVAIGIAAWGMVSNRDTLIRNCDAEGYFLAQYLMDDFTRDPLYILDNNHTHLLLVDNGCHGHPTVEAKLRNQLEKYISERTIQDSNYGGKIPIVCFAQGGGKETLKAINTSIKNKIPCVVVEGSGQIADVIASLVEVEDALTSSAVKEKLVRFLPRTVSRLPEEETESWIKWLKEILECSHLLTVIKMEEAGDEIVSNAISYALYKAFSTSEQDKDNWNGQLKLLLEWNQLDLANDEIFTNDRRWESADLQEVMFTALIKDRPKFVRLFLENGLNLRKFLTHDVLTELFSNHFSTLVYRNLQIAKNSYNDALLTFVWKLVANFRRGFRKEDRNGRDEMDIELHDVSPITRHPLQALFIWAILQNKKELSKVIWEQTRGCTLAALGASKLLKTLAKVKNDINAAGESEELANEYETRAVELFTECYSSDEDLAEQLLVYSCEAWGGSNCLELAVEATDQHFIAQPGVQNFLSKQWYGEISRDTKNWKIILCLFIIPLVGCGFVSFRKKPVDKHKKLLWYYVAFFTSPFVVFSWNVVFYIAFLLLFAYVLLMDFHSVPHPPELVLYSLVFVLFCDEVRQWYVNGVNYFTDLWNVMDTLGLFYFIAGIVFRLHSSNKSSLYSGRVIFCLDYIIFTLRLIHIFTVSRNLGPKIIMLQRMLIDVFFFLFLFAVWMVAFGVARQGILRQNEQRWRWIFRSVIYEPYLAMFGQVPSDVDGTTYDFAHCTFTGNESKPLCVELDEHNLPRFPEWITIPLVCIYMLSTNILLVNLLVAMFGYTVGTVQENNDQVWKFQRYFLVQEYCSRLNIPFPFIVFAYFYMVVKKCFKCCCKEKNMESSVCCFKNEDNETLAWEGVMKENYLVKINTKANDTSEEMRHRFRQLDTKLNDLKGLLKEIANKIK

For assay [2], the target named is T1, Transient receptor potential cation channel subfamily M member 8. Put plainly: Potency index, ratio of WS-3 EC50 to compound EC50 for human TRPM8 receptor.
Target sequence in this assay (Q7Z2W7 whole entry, looked up): as the sequence (Q7Z2W7 whole entry) above

Take `Cc1ccc(OCC(=O)N(Cc2cccs2)c2ncccn2)cc1`: in assay [1] (read-out: EC50), the EC50 amounted to 3700 nM. Moreover, the Ratio EC50 in assay [2] is 1.
With `CON(Cc1cccs1)C(=O)COc1ccc(C)cc1`, in assay [1] (read-out: EC50), the EC50 stood at 10 nM. Also, in assay [2], the Ratio EC50 came to 317.
Take `CCN(Cc1ccc(C)s1)C(=O)COc1ccc(C)cc1`: the EC50 in assay [1] (read-out: EC50) worked out at 178 nM. In addition, the Ratio EC50 in assay [2] worked out at 18.
For `Cc1ccc(OCC(=O)N(Cc2cccs2)CC(C)C)cc1`, the EC50 in assay [1] (read-out: EC50) amounted to 900 nM. The Ratio EC50 in assay [2] came to 3.
As to `COCCN(Cc1cccs1)C(=O)COc1ccc(C)cc1`, the EC50 in assay [1] (read-out: EC50) turned out to be 400 nM. Moreover, in assay [2], the Ratio EC50 came to 11.
Turning to `CCN(Cc1cccs1)C(=O)COc1ccc(CO)cc1`, in assay [1] (read-out: EC50), the EC50 stood at 21900 nM. The Ratio EC50 in assay [2] was determined as 0.2.
`CCN(Cc1c[nH]nn1)C(=O)COc1ccc(C)cc1`: the EC50 in assay [1] (read-out: EC50) stood at 31100 nM. Also, in assay [2], the Ratio EC50 came to 0.1.
As to `CCN(Cc1cccs1)C(=O)c1cc2cc(C)ccc2[nH]1`, the EC50 in assay [1] (read-out: EC50) worked out at 2000 nM. Further, the Ratio EC50 in assay [2] came out at 2.
For `Cc1ccc(OCC(=O)N(Cc2cccs2)c2ccn(C)n2)cc1`, in assay [1] (read-out: EC50), the EC50 was 855 nM. The Ratio EC50 in assay [2] was determined as 13.
With `CCN(Cc1cccn1C)C(=O)COc1ccc(C)cc1`, the EC50 in assay [1] (read-out: EC50) is 21300 nM. The Ratio EC50 in assay [2] came to 0.3.
With `CCN(Cc1cn[nH]c1)C(=O)COc1ccc(C)cc1`, in assay [1] (hek293), the EC50 entry is given as “Active”.
Regarding `CCN(Cc1cccs1)C(=O)C[C@H](O)c1ccccc1`, the EC50 in assay [1] (read-out: EC50) came out at 52000 nM. Also, the Ratio EC50 in assay [2] worked out at 0.1.
For `CCN(Cc1ccccc1)C(=O)COc1ccc(C)cc1` the same measures were 1880 nM and 2.
Consider `Cc1ccc(OCC(=O)N(Cc2cccs2)c2cnn(C)c2)cc1`, for which the EC50 in assay [1] (read-out: EC50) was determined as 63000 nM. For the same molecule, in assay [2], the Ratio EC50 was determined as 0.1.
For `CCN(Cc1cccs1)C(=O)COc1ccccc1`, the EC50 in assay [1] (read-out: EC50) is 1400 nM. Also, in assay [2], the Ratio EC50 turned out to be 4.
The corresponding values for `CCN(Cc1cccs1)C(=O)COc1ccc(C#N)cc1` are 1990 nM and 2.
With `Cc1ccc(OC2CCN(Cc3cccs3)C2=O)cc1` (stereo unspecified), in assay [1] (hek293), the EC50 entry is “Not Active”.
Consider `Cc1ccc(OCC(=O)N(Cc2cccs2)c2nccn2C)cc1`, for which, in assay [1] (read-out: EC50), the EC50 was 1790 nM. Further, the Ratio EC50 in assay [2] was determined as 3.
For `CCN(Cc1cccs1)C(=O)COc1ccccc1C`, the EC50 in assay [1] (read-out: EC50) worked out at 192 nM. Further, the Ratio EC50 in assay [2] is 18.
For the molecule `CCN(Cc1cccs1)C(=O)C(C)Oc1ccc(C)cc1` (stereo unspecified), the EC50 in assay [1] (read-out: EC50) is 889 nM. For the same molecule, in assay [2], the Ratio EC50 was determined as 4.
`Cc1ccc(OCC(=O)NCc2cccs2)cc1`: the EC50 in assay [1] (read-out: EC50) is 25000 nM. The Ratio EC50 in assay [2] worked out at 0.1.
For `Cc1ccc(OCC(=O)N(CCO)Cc2cccs2)cc1`, in assay [1] (read-out: EC50), the concentration for a half-maximal effect (EC50) was 900 nM. The Ratio EC50 in assay [2] is 5.
Turning to `Cc1ccc(OCC(=O)N(Cc2cccs2)c2ccncc2)cc1`, the EC50 in assay [1] (read-out: EC50) came to 52 nM. Moreover, the Ratio EC50 in assay [2] stood at 77.
Take `Cc1ccc(OCC(=O)N(C)Cc2cccs2)cc1`: in assay [1] (read-out: EC50), the EC50 is 400 nM. Moreover, the Ratio EC50 in assay [2] was determined as 15.
`CCN(Cc1ccccn1)C(=O)COc1ccc(C)cc1`: the EC50 in assay [1] (read-out: EC50) was determined as 16000 nM. The Ratio EC50 in assay [2] was found to be 0.2.
With `CCN(Cc1cccnc1)C(=O)COc1ccc(C)cc1`, the EC50 in assay [1] (read-out: EC50) was found to be 15400 nM. Further, the Ratio EC50 in assay [2] came to 0.2.
Consider `CCN1C(=O)C(Oc2ccc(C)cc2)C1c1cccs1` (stereo unspecified), for which the EC50 entry in assay [1] (hek293) is recorded as “Active”.
In the case of `Cc1ccc(OCC(=O)N(Cc2cccs2)C(C)(C)C)cc1`, the concentration for a half-maximal effect (EC50) in assay [1] (read-out: EC50) was determined as 11000 nM. Besides, in assay [2], the Ratio EC50 was 0.4.
Regarding `CCN(Cc1cccs1)C(=O)COc1ccc(F)cc1`, in assay [1] (read-out: EC50), the EC50 is 422 nM. The Ratio EC50 in assay [2] stood at 10.
For `CCN(Cc1cccs1)C(=O)/C=C/c1ccc2c(c1)OCO2` the same measures were 0.7 nM and 6830.
For the molecule `CCN(Cc1ccncc1)C(=O)COc1ccc(C)cc1`, the EC50 result in assay [1] (hek293) is “Not Active”.
With `Cc1ccc(OCC(=O)N(Cc2cccs2)C(C)C)cc1`, the EC50 in assay [1] (read-out: EC50) was found to be 70 nM. The Ratio EC50 in assay [2] turned out to be 66.
On to `CCN(Cc1cc[nH]n1)C(=O)COc1ccc(C)cc1`, for which the EC50 entry in assay [1] (hek293) is listed as “Not Active”.
On to `CCN(Cc1cncs1)C(=O)COc1ccc(C)cc1`, for which the EC50 in assay [1] (read-out: EC50) came to 1100 nM. Further, in assay [2], the Ratio EC50 was found to be 4.
As to `CCN(Cc1cccs1)C(=O)COc1ccc(C(=O)O)cc1`, the EC50 entry in assay [1] (hek293) is given as “Not Active”.
As to `CCN(Cc1cccs1)C(=O)COc1ccc(Cl)cc1`, the concentration for a half-maximal effect (EC50) in assay [1] (read-out: EC50) was found to be 39 nM. Besides, the Ratio EC50 in assay [2] came to 93.
For `Cc1ccc(OCC(=O)N(Cc2cccs2)c2c(C)n[nH]c2C)cc1` the same measures were 0.3 nM and 14700.
As for `CCN(C(=O)COc1ccc(C)cc1)C(C)c1cccs1` (stereo unspecified), the EC50 result in assay [1] (hek293) is recorded as “Not Active”.
As for `Cc1ccc(OCC(=O)N(Cc2cccs2)C2COC2)cc1`, the EC50 in assay [1] (read-out: EC50) was found to be 23000 nM. The Ratio EC50 in assay [2] turned out to be 0.3.
As to `Cc1ccc(OCC(=O)N(O)Cc2cccs2)cc1`, the EC50 in assay [1] (read-out: EC50) stood at 8000 nM. Further, the Ratio EC50 in assay [2] was 0.4.
Turning to `Cc1ccc(OCC(=O)N(Cc2cccs2)c2cnccn2)cc1`, the EC50 in assay [1] (read-out: EC50) stood at 1240 nM. The Ratio EC50 in assay [2] was 3.
As to `CCN(Cc1cccs1)C(=O)C[C@@H](O)c1ccccc1`, the EC50 entry in assay [1] (hek293) was “Not Active”.
For the molecule `Cc1ccc(OCC(=O)N(Cc2cccs2)C2CCCCC2)cc1`, the EC50 in assay [1] (read-out: EC50) turned out to be 40000 nM. The Ratio EC50 in assay [2] was 0.1.
Take `CCN(Cc1cccs1)C(=O)C(C)(C)Oc1ccc(C)cc1`: in assay [1] (read-out: EC50), the EC50 worked out at 11000 nM. Besides, the Ratio EC50 in assay [2] was found to be 0.3.
With `CCC(C)N(Cc1cccs1)C(=O)COc1ccc(C)cc1` (stereo unspecified), in assay [1] (read-out: EC50), the EC50 stood at 2000 nM. Further, in assay [2], the Ratio EC50 worked out at 2.
Regarding `Cc1ccc(OCC(=O)N(CCCO)Cc2cccs2)cc1`, in assay [1] (read-out: EC50), the concentration giving a half-maximal response (EC50) is 3000 nM. Also, in assay [2], the Ratio EC50 worked out at 1.
With `CCN(Cc1cccs1)C(=O)COc1ccc(C(F)(F)F)cc1`, the EC50 in assay [1] (read-out: EC50) was found to be 236 nM. Moreover, the Ratio EC50 in assay [2] worked out at 18.
For `CCN(Cc1cccs1)C(=O)COc1ccc2c(c1)CCCC2` the same measures were 689 nM and 7.
The corresponding values for `O=C(COc1ccc2c(c1)OCO2)N(Cc1cccs1)c1ccn[nH]1` are 0.6 nM and 6340.
Take `CCN(Cc1nccs1)C(=O)COc1ccc(C)cc1`: the EC50 in assay [1] (read-out: EC50) was 3060 nM. The Ratio EC50 in assay [2] amounted to 2.
Consider `O=C(/C=C/c1ccc2c(c1)OCO2)N(Cc1cccs1)c1ccn[nH]1`, for which the EC50 in assay [1] (read-out: EC50) was found to be 0.002 nM. Besides, the Ratio EC50 in assay [2] was above 1e+06.
On to `CCCc1ccc(OCC(=O)N(CC)Cc2cccs2)cc1`, for which, in assay [1] (read-out: EC50), the 50% effective concentration (EC50) was found to be 1810 nM. Moreover, the Ratio EC50 in assay [2] was determined as 3.
As for `CCN(Cc1cc[nH]c1)C(=O)COc1ccc(C)cc1`, in assay [1] (read-out: EC50), the EC50 stood at 21800 nM. Besides, the Ratio EC50 in assay [2] was determined as 0.2.
On to `CCN(Cc1cccs1)C(=O)c1cc2cc(C)ccc2s1`, for which, in assay [1] (read-out: EC50), the EC50 was found to be 1600 nM. The Ratio EC50 in assay [2] was found to be 3.
As for `Cc1ccc(OCC(=O)N(Cc2cccs2)c2nccs2)cc1`, the EC50 in assay [1] (read-out: EC50) was determined as 2240 nM. In addition, in assay [2], the Ratio EC50 was 2.
For `CCN(Cc1cccs1)C(=O)COc1ccc(C(C)C)cc1` the same measures were 397 nM and 10.
Consider `CCN(Cc1cccs1)C(=O)c1cc2cc(C)ccc2n1C`, for which the EC50 result in assay [1] (hek293) is given as “Not Active”.
`COc1ccc(OCC(=O)N(Cc2cccs2)c2cc[nH]n2)cc1`: in assay [1] (read-out: EC50), the EC50 was found to be 3.7 nM.

By EC50 is commonly meant the concentration needed to bring the measured effect to its halfway point.
